The structures appear in SMILES notation.

Our source for the IC50 and HDAC6 inhibitor rate values is publication PMC11412156 (Journal of medicinal chemistry, 2024).

Format in all cases: biochemical
Test [1] has as its target HDAC1 (Homo sapiens, UniProt Q13547). Kind of test: HDAC enzyme-based fluorogenic assay, HDAC1. The conditions noted are these: read-out: HDAC1 IC50; mean of at least three experiments.
Test [2] has as its target HDAC2 (Homo sapiens, UniProt Q92769). Put plainly: HDAC enzyme-based fluorogenic assay, HDAC2. To be noted: read-out: HDAC2 IC50; mean of at least three experiments.
The target in test [3] is HDAC3 (Homo sapiens, UniProt O15379). Kind of test: HDAC enzyme-based fluorogenic assay, HDAC3. To be noted: read-out: HDAC3 IC50; mean of at least three experiments.
Sequence of HDAC3 (O15379 whole entry): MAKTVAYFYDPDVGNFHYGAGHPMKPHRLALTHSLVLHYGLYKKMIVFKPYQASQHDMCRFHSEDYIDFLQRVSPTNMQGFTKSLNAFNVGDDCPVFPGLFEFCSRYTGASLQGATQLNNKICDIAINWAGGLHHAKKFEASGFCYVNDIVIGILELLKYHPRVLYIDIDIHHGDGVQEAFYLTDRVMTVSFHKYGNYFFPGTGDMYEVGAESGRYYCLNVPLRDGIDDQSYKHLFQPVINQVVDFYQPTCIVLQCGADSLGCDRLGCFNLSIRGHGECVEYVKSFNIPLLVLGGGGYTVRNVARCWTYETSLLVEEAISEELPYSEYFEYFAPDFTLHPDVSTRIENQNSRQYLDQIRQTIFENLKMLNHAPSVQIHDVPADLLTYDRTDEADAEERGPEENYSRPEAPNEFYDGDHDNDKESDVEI
Sequence of HDAC3 (Q9Y618 395-489 partner limits assumed): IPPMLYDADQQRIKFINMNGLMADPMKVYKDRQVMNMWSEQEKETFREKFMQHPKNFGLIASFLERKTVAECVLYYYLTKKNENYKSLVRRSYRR
Test [4] concerns the target T1, HDAC6 (Homo sapiens, UniProt Q9UBN7).
T1 sequence (Q9UBN7 1-1215): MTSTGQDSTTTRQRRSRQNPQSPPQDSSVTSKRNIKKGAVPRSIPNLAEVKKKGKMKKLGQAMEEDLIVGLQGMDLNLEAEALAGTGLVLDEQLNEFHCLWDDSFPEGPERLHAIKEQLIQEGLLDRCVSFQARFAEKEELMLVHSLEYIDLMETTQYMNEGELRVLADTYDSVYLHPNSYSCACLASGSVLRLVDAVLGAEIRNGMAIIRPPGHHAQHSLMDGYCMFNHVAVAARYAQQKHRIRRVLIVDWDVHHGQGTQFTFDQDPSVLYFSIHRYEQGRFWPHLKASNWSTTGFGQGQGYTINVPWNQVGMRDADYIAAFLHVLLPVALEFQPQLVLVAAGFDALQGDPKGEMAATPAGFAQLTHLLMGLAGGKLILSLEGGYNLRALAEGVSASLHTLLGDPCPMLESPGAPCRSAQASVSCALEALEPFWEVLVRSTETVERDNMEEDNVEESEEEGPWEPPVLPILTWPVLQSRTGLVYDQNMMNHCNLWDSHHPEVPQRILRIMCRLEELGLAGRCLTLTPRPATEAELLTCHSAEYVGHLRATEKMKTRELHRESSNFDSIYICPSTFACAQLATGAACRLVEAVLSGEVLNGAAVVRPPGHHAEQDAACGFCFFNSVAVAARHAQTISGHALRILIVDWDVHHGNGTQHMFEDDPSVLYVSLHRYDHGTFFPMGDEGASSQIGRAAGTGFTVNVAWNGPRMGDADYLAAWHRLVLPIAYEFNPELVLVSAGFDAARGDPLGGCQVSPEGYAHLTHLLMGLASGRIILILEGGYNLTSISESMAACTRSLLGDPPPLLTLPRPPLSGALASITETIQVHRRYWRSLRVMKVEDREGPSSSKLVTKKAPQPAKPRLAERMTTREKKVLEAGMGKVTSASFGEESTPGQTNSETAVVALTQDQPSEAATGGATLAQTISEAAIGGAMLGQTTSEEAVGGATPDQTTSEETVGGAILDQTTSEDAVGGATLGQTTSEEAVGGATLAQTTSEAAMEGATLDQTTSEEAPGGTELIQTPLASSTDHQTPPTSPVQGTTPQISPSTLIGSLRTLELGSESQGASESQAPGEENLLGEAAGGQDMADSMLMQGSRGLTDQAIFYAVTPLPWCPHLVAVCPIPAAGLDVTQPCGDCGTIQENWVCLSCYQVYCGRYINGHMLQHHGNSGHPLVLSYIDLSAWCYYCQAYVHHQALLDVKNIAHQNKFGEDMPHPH
Put plainly: HDAC enzyme-based fluorogenic assay, HDAC6. The conditions noted are these: for HDAC6 inhibitor rate: final concentration of 2 μM, preliminary screen; for IC50: read-out: HDAC6 IC50, mean of at least three experiments.

Test [5] has as its target T2, HDAC8 (Homo sapiens, UniProt Q9BY41).
T2 sequence (Q9BY41 1-377): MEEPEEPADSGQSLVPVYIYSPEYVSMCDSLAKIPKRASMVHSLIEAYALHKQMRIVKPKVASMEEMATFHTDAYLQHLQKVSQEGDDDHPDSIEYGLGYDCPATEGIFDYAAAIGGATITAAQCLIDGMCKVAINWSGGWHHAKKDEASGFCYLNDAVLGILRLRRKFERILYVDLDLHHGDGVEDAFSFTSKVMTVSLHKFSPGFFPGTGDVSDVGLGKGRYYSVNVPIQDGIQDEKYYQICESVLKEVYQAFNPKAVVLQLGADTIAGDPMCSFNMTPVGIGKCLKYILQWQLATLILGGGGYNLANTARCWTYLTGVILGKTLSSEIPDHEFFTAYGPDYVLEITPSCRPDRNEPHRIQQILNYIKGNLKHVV
Put plainly: HDAC enzyme-based fluorogenic assay, HDAC8. The conditions noted are these: read-out: HDAC8 IC50; mean of at least three experiments.

Test [6] addresses T3, HDAC11 (Homo sapiens, UniProt Q96DB2).
T3 sequence (Q96DB2 1-347): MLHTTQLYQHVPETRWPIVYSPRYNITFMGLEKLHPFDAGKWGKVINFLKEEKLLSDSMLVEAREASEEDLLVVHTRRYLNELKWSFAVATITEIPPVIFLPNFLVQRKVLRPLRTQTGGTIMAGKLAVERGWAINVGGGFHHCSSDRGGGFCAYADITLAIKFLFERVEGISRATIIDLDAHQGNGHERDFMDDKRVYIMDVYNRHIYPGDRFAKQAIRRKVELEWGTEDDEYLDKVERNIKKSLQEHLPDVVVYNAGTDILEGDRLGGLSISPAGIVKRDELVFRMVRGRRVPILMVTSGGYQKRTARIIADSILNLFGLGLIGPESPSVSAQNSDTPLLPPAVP
Kind of test: HDAC enzyme-based fluorogenic assay, HDAC11. The conditions noted are these: read-out: HDAC11 IC50; mean of at least three experiments.

Sequence of HDAC2 (Q92769 whole entry): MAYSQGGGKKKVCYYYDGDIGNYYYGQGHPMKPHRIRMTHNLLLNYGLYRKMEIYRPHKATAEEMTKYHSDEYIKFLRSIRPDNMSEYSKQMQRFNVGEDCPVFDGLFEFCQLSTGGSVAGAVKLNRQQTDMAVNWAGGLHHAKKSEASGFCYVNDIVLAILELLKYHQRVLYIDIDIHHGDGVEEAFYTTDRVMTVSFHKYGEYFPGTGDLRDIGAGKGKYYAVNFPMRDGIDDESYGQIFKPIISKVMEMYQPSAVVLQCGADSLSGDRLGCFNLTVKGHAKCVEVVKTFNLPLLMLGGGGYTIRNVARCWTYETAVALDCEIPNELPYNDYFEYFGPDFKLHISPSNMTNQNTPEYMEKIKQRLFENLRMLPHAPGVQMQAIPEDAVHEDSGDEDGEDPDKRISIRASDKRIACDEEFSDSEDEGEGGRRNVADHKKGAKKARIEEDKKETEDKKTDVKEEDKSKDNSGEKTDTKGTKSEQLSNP
Sequence of HDAC1 (Q13547 whole entry): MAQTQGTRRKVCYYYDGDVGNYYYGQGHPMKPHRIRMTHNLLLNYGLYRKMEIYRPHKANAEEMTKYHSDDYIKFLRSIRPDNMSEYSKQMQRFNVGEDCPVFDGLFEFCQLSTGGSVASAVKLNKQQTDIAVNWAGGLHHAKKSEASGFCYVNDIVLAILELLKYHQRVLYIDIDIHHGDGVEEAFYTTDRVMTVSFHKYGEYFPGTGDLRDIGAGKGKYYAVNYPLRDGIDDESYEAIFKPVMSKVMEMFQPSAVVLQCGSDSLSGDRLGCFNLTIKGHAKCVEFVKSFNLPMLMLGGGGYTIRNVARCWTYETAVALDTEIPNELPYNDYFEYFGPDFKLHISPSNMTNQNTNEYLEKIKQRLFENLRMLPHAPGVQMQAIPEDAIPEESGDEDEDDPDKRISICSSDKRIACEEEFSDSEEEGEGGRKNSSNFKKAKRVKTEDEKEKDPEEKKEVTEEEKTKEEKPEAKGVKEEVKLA

For `C[C@]12CC3CC(Nc4c(Nc5ccc(C(=O)N6CCC[C@H](C(=O)NCCCCCC(=O)NO)C6)cc5)c(=O)c4=O)(C1)C[C@@](C)(C3)C2` [Compound 40c, (S)-1-(4-((2-(((1r,3R,5S,7r)-3,5-Dimethyladamantan-1-yl)amino)-3,4-dioxocyclobut-1-en-1-yl)amino)benzoyl)-N-(6-(hydroxyamino)-6-oxohexyl)piperidine-3-carbo-xamide], the IC50 in test [1] was 1030 nM; in test [2] it was 3100 nM; in test [3], 4150 nM; in test [4], 282 nM; in test [5] it was 520 nM; in test [6], 84 nM. This compound also gave an HDAC6 inhibitor rate in test [4] of 98.49%.

For `CC12CC3CC(C)(C1)CC(Nc1c(Nc4ccc(C(=O)N5CCC[C@H](C(=O)NCCCCCCC(=O)NO)C5)cc4)c(=O)c1=O)(C3)C2` [Compound 40d, (S)-1-(4-((2-(((1r,3R,5S,7r)-3,5-Dimethyladamantan-1-yl)amino)-3,4-dioxocyclobut-1-en-1-yl)amino)benzoyl)-N-(7-(hydroxyamino)-7-oxoheptyl)piperidine-3-carboxamide], the 50% inhibitory concentration (IC50) is 415 nM in test [1]; 2530 nM in test [2]; 1450 nM in test [3]; 162 nM in test [4]; 158 nM in test [5]; 241 nM in test [6]. The compound also gave an HDAC6 inhibitor rate in test [4] of 99.66%.

What is called IC50 is the concentration that gives 50% inhibition.
